In patent publication US8952024B2, “Herbicidal pyrimidone derivatives” (E I du Pont de Nemours and Company, priority 2009, dated 2015):

Assays:
Assay type in all cases: in vivo
Details in all cases: Postemergence
corn (Zea mays) = experiment: Test B pre-/postemergence plant response
Procedure, shortened: (§1)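 Visually scored on a 0 to 100 scale after 13 to 15 days in greenhouse versus controls. Treatments were preemergence on seeded loam/sand soil and postemergence on 1- to 4-leaf plants.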

[1] = test system: giant foxtail (Setaria faberii); experiment: Test B pre-/postemergence plant response
Procedure, shortened: as §1

[2] = test system: goosegrass (Eleusine indica); experiment: Test B pre-/postemergence plant response
Procedure, shortened: as §1

[3] = test system: green foxtail (Setaria viridis); experiment: Test B pre-/postemergence plant response
Procedure, shortened: as §1

[4] = test system: johnsongrass (Sorghum halepense); experiment: Test B pre-/postemergence plant response
Procedure, shortened: as §1

[5] = test system: lambsquarters (Chenopodium album); experiment: Test B pre-/postemergence plant response
Procedure, shortened: as §1

[6] = test system: pigweed (Amaranthus retroflexus); experiment: Test B pre-/postemergence plant response
Procedure, shortened: as §1

soybean (Glycine max) = experiment: Test B pre-/postemergence plant response
Procedure, shortened: as §1

[7] = test system: velvetleaf (Abutilon theophrasti); experiment: Test B pre-/postemergence plant response
Procedure, shortened: as §1

[8] = test system: yellow nutsedge (Cyperus esculentus); experiment: Test B pre-/postemergence plant response
Procedure, shortened: as §1

[9] = test system: canarygrass (Phalaris minor); experiment: Test B postemergence plant response
Procedure, shortened: (§2)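 Plants at the 1- to 4-leaf stage (2 to 18 cm tall), grown in pots of peat moss/vermiculite medium with wetting agent and starter nutrients, received postemergence applications of test chemicals. After 13 to 15 days in a greenhouse, injury was rated visually against untreated controls on a 0 (no effect) to 100 (complete control) scale.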

[10] = test system: chickweed (Stellaria media); experiment: Test B postemergence plant response
Procedure, shortened: as §2

[11] = test system: windgrass (Apera spica-venti); experiment: Test B postemergence plant response
Procedure, shortened: as §2

[12] = test system: winter barley (Hordeum vulgare); experiment: Test B postemergence plant response
Procedure, shortened: as §2

[13] = 31 g ai/ha, 0 to 100 scale (0 no effect, 100 complete control)
[14] = 62 g ai/ha, scale 0 to 100 (0 no effect, 100 complete control)
[15] = 125 g ai/ha, scale 0 (no effect) to 100 (complete control), 13 to 15 days
[16] = 250 g ai/ha, scale 0 to 100 (0 no effect, 100 complete control), 13 to 15 days

With CCCCn1c(-c2cccc(F)c2)ncc(C(=O)C2=C(O)C3CCC(C3)C2=O)c1=O (centres unmarked) [Compound 237] the “Plant response rating, Corn” value (corn (Zea mays); [13]) was 85, the “Plant response rating, Corn” value (corn (Zea mays); [14]) was 98 and the “Plant response rating, Corn” value (corn (Zea mays); [15]) was 100. For the same compound, the “Plant response rating, Corn” value (corn (Zea mays); [16]) was 100, the “Plant response rating, Foxtail, Giant” value [1, 13] was 98 and the “Plant response rating, Foxtail, Giant” value [1, 14] was 98. The “Plant response rating, Foxtail, Giant” value [1, 15] was 98, the “Plant response rating, Foxtail, Giant” value [1, 16] was 100 and the “Plant response rating, Goosegrass” value [2, 13] was 95. For the same compound, the “Plant response rating, Goosegrass” value [2, 14] was 98, the “Plant response rating, Goosegrass” value [2, 15] was 98 and the “Plant response rating, Goosegrass” value [2, 16] was 98. For the same compound, the “Plant response rating, Foxtail, Green” value [3, 13] was 80, the “Plant response rating, Foxtail, Green” value [3, 14] was 90 and the “Plant response rating, Foxtail, Green” value [3, 15] was 95. The “Plant response rating, Foxtail, Green” value [3, 16] was 95, the “Plant response rating, Johnsongrass” value [4, 13] was 100 and the “Plant response rating, Johnsongrass” value [4, 14] was 100. For the same compound, the “Plant response rating, Johnsongrass” value [4, 15] was 100, the “Plant response rating, Johnsongrass” value [4, 16] was 100 and the “Plant response rating, Lambsquarters” value [5, 13] was 95. For the same compound, the “Plant response rating, Lambsquarters” value [5, 14] was 100, the “Plant response rating, Lambsquarters” value [5, 15] was 100 and the “Plant response rating, Lambsquarters” value [5, 16] was 100. The “Plant response rating, Pigweed” value [6, 13] was 80, the “Plant response rating, Pigweed” value [6, 14] was 98 and the “Plant response rating, Pigweed” value [6, 15] was 100. The “Plant response rating, Pigweed” value [6, 16] was 100, the “Plant response rating, Soybean” value (soybean (Glycine max); [13]) was 95 and the “Plant response rating, Soybean” value (soybean (Glycine max); [14]) was 100. For the same compound, the “Plant response rating, Soybean” value (soybean (Glycine max); [15]) was 100, the “Plant response rating, Soybean” value (soybean (Glycine max); [16]) was 100 and the “Plant response rating, Velvetleaf” value [7, 13] was 85. The “Plant response rating, Velvetleaf” value [7, 14] was 90, the “Plant response rating, Velvetleaf” value [7, 15] was 100 and the “Plant response rating, Velvetleaf” value [7, 16] was 100. For the same compound, the “Plant response rating, Nutsedge, Yellow” value [8, 13] was 20, the “Plant response rating, Nutsedge, Yellow” value [8, 14] was 35 and the “Plant response rating, Nutsedge, Yellow” value [8, 15] was 45. The “Plant response rating, Nutsedge, Yellow” value [8, 16] was 45, the “Plant response rating, Canarygrass” value [9, 13] was 30 and the “Plant response rating, Canarygrass” value [9, 14] was 40. For the same compound, the “Plant response rating, Canarygrass” value [9, 15] was 50, the “Plant response rating, Canarygrass” value [9, 16] was 50 and the “Plant response rating, Chickweed” value [10, 13] was 90. For the same compound, the “Plant response rating, Chickweed” value [10, 14] was 98, the “Plant response rating, Chickweed” value [10, 15] was 100 and the “Plant response rating, Chickweed” value [10, 16] was 100. The “Plant response rating, Windgrass” value [11, 13] was 60, the “Plant response rating, Windgrass” value [11, 14] was 90 and the “Plant response rating, Windgrass” value [11, 15] was 98. The “Plant response rating, Windgrass” value [11, 16] was 100, the “Plant response rating, Barley” value [12, 13] was 5 and the “Plant response rating, Barley” value [12, 14] was 15. The “Plant response rating, Barley” value [12, 15] was 40 and the “Plant response rating, Barley” value [12, 16] was 40.
